Laboratory results reported in patent publication US11116738B2, “Methods for treating neutropenia using retinoid agonists” (CHILDREN'S HOSPITAL LOS ANGELES, priority 2012, dated 2021).

Key:
[1] = test system: acute promyelocytic leukemia (APL); settings: APL patients; cited from earlier work
[2] = test system: CD34+ cells; experiment: Morphologic analysis of granulocytic differentiation of CD34+ cells; format: cell-based, human; settings: for neutrophil morphologic differentiation, promyelocyte to segmented stage (in words): G-CSF 25 ng/ml or Am80 2.5 nM; for efficacy as inducer of granulocytic differentiation (in words): CD34+ cells, FIG. 6, day 12-13
Procedure: (§1) Normal human primitive umbilical cord blood CD34+ cells were from AllCells (Emeryville, Calif.). CD34+ cells were expanded^29 about 50× by using StemSpan serum-free medium (StemCell Technologies, Vancouver, Canada) for 6 days according to the manufacturer's protocol. To induce granulopoiesis, CD34+ cells were cultured with myeloid medium supplemented with 25 ng/ml of G-CSF^17,29 for 6-12 days. Lymphoid and erythroid cells were blocked during granulopoiesis by addition of hydrocortisone and exclusion of erythropoietin.^17, 29 All-trans retinoic acid (RA) was from Sigma (St. Louis, Mo.), while the retinoid agonists Am80, CH55, and IT-YA-01115 (ITYA) were from Research Foundation ITSUU Laboratory (Tokyo, Japan). Each retinoid compound was dissolved in ethanol. The experimentally determined conditions, using 25 ng/ml of G-CSF^17,29 or 2.5 nM of Am80 for granulocytic induction of 6 days (FIG. 1), were applied in the studies.
Cell suspensions were cytocentrifuged onto Micro slides, followed by methanol fixation and stained with Wright-Giemsa (Sigma) as described.^17,29 The morphologic indicators of differentiation were evaluated under a Zeiss Axioplan microscope, and images were color balanced with Adobe Photoshop as described.^17
Cells suspended in PBS containing 0.5% BSA and 2 mM EDTA were mixed with anti-CD15 antibodies conjugated to magnetic microbeads (Miltenyi Biotec, Bergish Gladbach, Germany) for incubation of 30 min at 4° C. CD15+ subpopulation was then purified by using magnetic sorter (Miltenyi Biotec, Bergish Gladbach, Germany) according to the manufacturer's protocol.

[3] = test system: S. aureus; experiment: Bactericidal activity in vitro of neutrophils purified from PB of treated neutropenic mice
Procedure: Each 5×10^5 to 2×10^6 of freshly purified PBN as well as ex vivo-induced GIN and AIN were suspended with 500 μl of culture medium (DMEM with 10% of FBS) in 1.5-ml tubes. Cells were incubated with log-phase Escherichia coli (E. coli) DH5α (provided by collaborator) or Staphylococcus aureus (S. aureus; ATCC) at an MOI of 5 or 10 at 37° C. for 15, 30, and/or 60 min, whereas bacteria in the absence of cells were used to determine growth. The samples with or without cells were centrifuged at 1000-rpm at each time point. Extracellular bacteria in the presence of cells were collected from the supernatants, and enumerated by plating different dilutions (20 μL each) on blood agar. Cell pellets collected from the samples infected with bacteria were further incubated with 100 μg/ml of gentamicin (Sigma) for 1 hr at 37° C. to kill external bacteria. Cells were then washed twice and lysed with 100 μL of 0.5% Triton X-100. Different-dilution aliquots (20 μL for each) of viable intracellular bacteria recovered from the cell lysates were plated on blood agar. The numbers of extracellular and viable intracellular bacteria at each time point were determined by CFU counts as described,^5,30 while the number of phagocytosed and killed bacteria was based on the counts of extracellular and viable intracellular bacteria to the number of relevant bacteria control in the neutrophil-free condition.^5,30

[4] = test system: neutrophils induced from CD34+ cells; experiment: Degranulation analysis by Western blotting with or without E. coli stimuli; format: cell-based, human; settings: FIGS. 1, 2
Procedure: Western blotting (WB) was performed as described.^15 Antibodies for lactoferrin (Abcam, Cambridge, UK), MMP-9 (Merck Chemicals, Darmstadt, Germany), and LL-37 (Biolegend, San Diego, Calif.) were used in analyses.
Cells were incubated with or without E. coli DH5α (MOI of 5; cell to bacteria ratio 1:5) in serum-free DMEM medium for 30 min at 37° C. Both cell pellets and supernatants were collected by 3,000-rpm centrifugation for 7 min. The cell pellets were suspended with 100 μg/ml of gentamicin and incubated at 37° C. for 1 hr, followed by collection of cells and extraction of cellular proteins. The supernatant was filtered with a 0.22-μm filter (Pall corporation, Ann Arbor, Mich.) and proteins in the supernatant were then concentrated by using an Amicon Ultra-4 centrifugal filter unit designed to collect proteins with a mass greater than 3,000 daltons (Millipore, Billerica, Mass.). The quantity of the proteins was measured by using Bio-Rad DC Protein Assay (Hercules, Calif.).^29 The change in granule protein levels with or without E. coli stimuli was analyzed in parallel by WB.

[5] = test system: neutropenic mice; experiment: Neutrophil recovery in CPA-induced neutropenic mice; format: in vivo, C57BL6/J mice
[6] = test system: CD34+ cells; format: cell-based; settings: for cell death rate (in words) / cell proliferation (in words): CD34+ cells, FIG. 6B, 6D
Procedure: as §1, with “[…].” for “Lymphoid and erythroid cells were blocked during granulopoiesis by addition of hydrocortisone and exclusion of erythropoietin.^17, 29 All-trans retinoic acid (RA) was from Sigma (St. Louis, Mo.), while the retinoid agonists Am80, CH55, and IT-YA-01115 (ITYA) were from Research Foundation ITSUU Laboratory (Tokyo, Japan).”
Cell proliferation was determined by cell count with a standard hemocytometer, as described.^17,29 Briefly, equal numbers of cells plated in triplicate were counted for up to 13 days after 72 hr of plating. By using trypan blue exclusion, cell proliferation and its associated cell death in the cultures were measured simultaneously.

For `CC1(C)CCC(C)(C)c2cc(NC(=O)c3ccc(C(=O)O)cc3)ccc21` [Am80, tamibarotene], the “efficiency relative to RA or other retinoids as differentiation therapy” value [1] is given as “approximately 10 fold”, the “toxicity relative to RA or other retinoids (in words)” value [1] is given as “lower toxicity” and the “neutrophil morphologic differentiation, promyelocyte to segmented stage (in words)” value ([2]; 6 days) is given as “sufficiently induced”. For the same molecule, the “granulocytic differentiation (in words)” value ([2]; Am80 2.5 nM, 6 days) was “profoundly induced granulocytic differentiation with negligible monocytic induction”, the “efficacy as inducer of granulocytic differentiation (in words)” value [2] was “promote granulocytic differentiation with similar effectiveness” and the “efficacy of mobilized neutrophils against S aureus infection (in words)” value [3] was “significantly more efficacious against S aureus infection than those by G-CSF”. For the same molecule, the “granulocytic morphologic differentiation and granule production/secretion compared with G-CSF (in words)” value [4] was “more effective than G-CSF”, the “neutrophil recovery (in words)” value ([5]; day 3 post-CPA, Am80 5 mg/kg vs G-CSF of 250 μg, lower level of Ficoll-paque) was “competitive neutrophil recovery” and the “toxicity (in words)” value ([6]; Am80 2.5 nM, 6 days) was “less toxicity than 5 nM of Am80”. For the same molecule, the “cell death (in words)” value ([6]; Am80 10 nM) was “induced more cell death”, the “cell death rate (in words)” value [6] was “lower than seen with either CH55 or RA” and the “cell proliferation (in words)” value [6] was “inhibited cell proliferation”.

For `CC(C)(C)c1cc(C(=O)/C=C/c2ccc(C(=O)O)cc2)cc(C(C)(C)C)c1` [CH55], the “efficacy as inducer of granulocytic differentiation (in words)” value [2] was “promote granulocytic differentiation with similar effectiveness” and the “cell proliferation (in words)” value [6] was “inhibited cell proliferation”.

For `CC1=C(/C=C/C(C)=C/C=C/C(C)=C/C(=O)O)C(C)(C)CCC1` [RA, all-trans retinoic acid], the “efficacy as inducer of granulocytic differentiation (in words)” value [2] was “promote granulocytic differentiation with similar effectiveness” and the “cell proliferation (in words)” value [6] was “inhibited cell proliferation”.

B1: G-CSF: recombinant granulocyte colony-stimulating factor (protein, UniProt P09919 31-207, looked up)
Granulocyte …: TPLGPASSLPQSFLLKCLEQVRKIQGDGAALQEKLVSECATYKLCHPEELVLLGHSLGIPWAPLSSCPSQALQLAGCLSQLHSGLFLYQGLLQALEGISPELGPTLDTLQLDVADFATTIWQQMEELGMAPALQPTQGAMPAFASAFQRRAGGVLVASHLQSFLEVSYRVLRHLAQP
With B1 the “neutrophil morphologic differentiation, promyelocyte to segmented stage (in words)” value ([2]; 6 days) was “induced more myeloblasts as well as promyelocytes and myelocytes than banded and segmented neutrophils”, the “efficacy as inducer of granulocytic differentiation (in words)” value [2] was “significantly less efficacious” and the monocytes induced ([2]; G-CSF 25 ng/ml, 6 days) was “about 10%”. For the same molecule, the “granulocytic differentiation and monocytic induction by treatment time (in words)” value ([2]; G-CSF for 6, 9 and 12 days) was “more effective granulocytic differentiation with the lowest rate of monocytic induction on day 6”, the “neutrophil recovery (in words)” value ([5]; day 5, injection for 2 consecutive days) was “remarkably accelerated neutrophil recovery” and the “cell death rate (in words)” value [6] was “lower rate of cell death compared to RA”. The “cell proliferation (in words)” value [6] was “greater cell proliferation”.
